The nature of the first data set: IFF permeation test: permeation rate through wax or polymer matrix. The settings on record: matrix: carnauba wax.
Description: Referring to FIGS. 4A and 4B, fluid 46 is located in jar 44. Jar 44 has sidearm 45. The fluid 46 reaches fluid level 47. Directly in line with fluid level 47 is membrane 41. The diffusion membrane 41 is held in place with flanges 43 and jar lip 42, using bolts 401a and 401b which secures the flange in place. The sidearm 45 is closed using closure 49. The permeability apparatus is shown using reference numeral 40. The IFF permeability test is based on the use of the apparatus of FIGS. 4A and 4B. The weight of membrane 41 is taken, initially, before being placed within the flange 43 and the jar lip 42. Substance 46 for which the permeability is to be measured is placed into jar 44 to fluid level 47. The apparatus containing fluid 46 remains in place for a fixed period of time. At the end of that period of time, bolts 401a and 401b as well as 401c are loosened, the flange 43 removed and membrane 41 is removed and weighed, thereby gathering sufficient data to determine the permeability of the particular substance 46. […] The Y axis measures weight loss and is indicated by reference numeral 54.
`C/C=C(\C)C(=O)OCC` [ethyl tiglate]: the “permeation rate through matrix material” value is reported as 4.4 × 10^−4.

The data set is the same for the next values; noted with them: matrix: polyamide (MACROMELT 6030).
`C/C=C(\C)C(=O)OCC` [ethyl tiglate]: the “permeation rate through matrix material” value is 4.2 × 10^−4.

The data set is the same for the next values; noted with them: matrix: polyethylene wax, molecular weight 500.
With `C/C=C(\C)C(=O)OCC` [ethyl tiglate], the “permeation rate through matrix material” value is 2.0 × 10^−5.

The nature of the next data set: Vapor pressure of fragrance components.
Settings: not given
As for `C=CC(C)(CCC=C(C)C)OC(C)=O` (stereo not shown) [linalyl acetate], the “Vapor Pressure mm/Hg at 25° C.” value is 0.07 mm/Hg.
The same measure, in the same setting: in the case of `C=CC(C)CCCC(C)(C)O` (stereo not shown) [dihydromyrcenol] it was 0.09 mm/Hg.
The same measure, in the same setting: under `CC(=O)OC1CCC(C(C)(C)C)CC1` (stereo not shown) [VERTENEX ® HC] stands 0.03 mm/Hg.
On the same count and under the same terms, in the case of `CC(=O)O[C@@H]1C[C@H]2CC[C@]1(C)C2(C)C` (racemic) [isobornyl acetate] it was 0.09 mm/Hg.
As for `CC1(C)[C@H]2CC[C@]1(C)[C@H](O)C2` [l-borneol], the “Vapor Pressure mm/Hg at 25° C.” value came out at 0.02 mm/Hg.
On the same count and under the same terms, in the case of `CC(C=O)Cc1ccc(C(C)(C)C)cc1` (stereo not shown) [LILIAL ®] it was 0.003 mm/Hg; in that of `CC(=O)c1cc2c(cc1C)C(C)(C)C(C)CC2(C)C` (stereo not shown) [TONALID ®], 0.0001 mm/Hg.
The same measure, in the same setting: in the case of `CC(=O)OC(C)c1ccccc1` (stereo not shown) [styralyl acetate] it was 0.1 mm/Hg; in that of `C=CCc1ccc(OC)cc1` [methyl chavicol], 0.09 mm/Hg; in that of `CC(C)=CCCC(C)CCO` (stereo not shown) [citronellol], 0.009 mm/Hg.
Still for that read-out and setting: in the case of `CC(=O)C1(C)CC2=C(CCCC2(C)C)CC1C` (stereo not shown) [ISO E SUPER ®] it was 0.002 mm/Hg; in that of `OCCc1ccccc1` [β-phenyl ethyl alcohol], 0.02 mm/Hg; in that of `CCCCCCC(C=O)=Cc1ccccc1` [hexyl cinnamic aldehyde], 0.0003 mm/Hg.
Turning to `CCCCCCCCCC(C)C=O` (stereo not shown) [methyl nonyl acetaldehyde], the “Vapor Pressure mm/Hg at 25° C.” value was 0.009 mm/Hg.
The same measure, in the same setting: under `CC(=O)/C=C/C1=C(C)CCCC1(C)C` [β-ionone] stands 0.006 mm/Hg; under peach aldehyde coeur, 0.002 mm/Hg; under `CC(C=O)Cc1ccc(C(C)C)cc1` (stereo not shown) [cyclamal], 0.004 mm/Hg.
Regarding `C=CC(C)(O)CCC=C(C)C` (stereo not shown) [linalool], the “Vapor Pressure mm/Hg at 25° C.” value was found to be 0.05 mm/Hg.
Same read-out and setting: in the case of `CC12CCC(CC1=O)C2(C)C` (stereo not shown) [camphor] it was 0.1 mm/Hg; in that of `CC/C=C\CCOC(C)=O` [cis-3-hexenyl acetate], 2.0 mm/Hg; in that of `CC1=CC(C)C(C=O)CC1` (stereo not shown), 0.3 mm/Hg.
Regarding `CC/C=C\CCOC(=O)c1ccccc1O` [cis-3-hexenyl salicylate], the “Vapor Pressure mm/Hg at 25° C.” value was 0.0008 mm/Hg.
The same measure, in the same setting: under `CC1=CCC(C(C)(C)O)CC1` (stereo not drawn) [α-terpineol] stands 0.02 mm/Hg; under `CC(=O)OCc1ccccc1` [benzyl acetate], 0.1 mm/Hg; under `C=CCOC(=O)COCCC(C)C` [allyl amyl glycolate], 0.07 mm/Hg.
